As usually defined, the IC50 is the point on the concentration scale where inhibition reaches its midpoint. What is called half-life is the time needed for the level to fall by half in the phase considered.

Data set [1] has as its target T1, Tyrosine-protein kinase SYK (Homo sapiens, UniProt P43405). The data set is described as follows: Inhibition of Syk (unknown origin) assessed as enzyme activity at 2 uM preincubated for 20 mins followed by 33P-gamma-ATP measured after 120 mins by HotSpot assay relative to control. Also on record: scale not given: the % may be the effect or the level left. The following applies: time 140.0 min.

Data set [2] addresses T1, Tyrosine-protein kinase SYK. The data set is described as follows: Inhibition of Syk (unknown origin) preincubated for 20 mins followed by 33P-gamma-ATP measured after 120 mins by HotSpot assay.
The subject of data set [3] is Ramos. The data set is described as follows: Inhibition of […] in serum-starved human Ramos cells incubated for 1 hr followed by anti-human IgM F(ab)2 measured after 5 mins. Format: functional, cell-based.
Data set [4] in a line: Metabolic stability in human liver microsomes assessed as intrinsic clearance at […] incubated for 60 mins in presence of NADPH by LC-MS/MS analysis. Format: ADME, Microsome. The following applies: read-out: CLH. (In general: Liver microsomes are vesicles of endoplasmic reticulum, rich in cytochrome P450 enzymes.)
Data set [5] can be described thus: Metabolic stability in human liver microsomes assessed as half life at […] incubated for 60 mins in presence of NADPH by LC-MS/MS analysis. Format: ADME, Microsome.
Data set [6] concerns MV4-11. The data set is described as follows: Inhibition of cell viability in human MV4-11 cells incubated for 72 hrs by Cell Titer Glo assay. The following applies: MV4-11, 72 h. Format: functional, cell-based. For orientation: Cellular ATP, detected with luciferase, serves as a proxy for viable cell number.

For `Cc1ccc(CNc2c[nH]nc2-c2nc3ccccc3[nH]2)o1`, the Activity in data set [1] turned out to be 60.5%.
Turning to `c1cc(N2CCCC2)c2nc(-c3n[nH]cc3Nc3ncnc4[nH]ccc34)[nH]c2c1`, the IC50 in data set [2] was determined as 14.5 nM; in data set [3], 26.8 nM; in data set [6] it was 82.5 nM. Also, the microsomal CLint in data set [4] stood at 78.1 µL/min/mg. Also, the half-life in data set [5] was determined as 44.4 min.
For `c1ccc2[nH]c(-c3n[nH]cc3Nc3ncnc4c3CCC4)nc2c1`, the Activity in data set [1] came to 18.5%.
In the case of `CN(C)CCN(C)c1ccc2[nH]c(-c3n[nH]cc3Nc3ncnc4[nH]ccc34)nc2c1`, the results for the concentration for half-maximal inhibition (IC50) in data set [2], in data set [3] and in data set [6] were 3.2 nM, 35.9 nM and 9.3 nM, respectively. Moreover, the microsomal CLint in data set [4] was 15.9 µL/min/mg. Besides, the half-life in data set [5] was 87.3 min.
In the case of `CCN(CC)c1ccc2[nH]c(-c3n[nH]cc3Nc3ncnc4[nH]ccc34)nc2c1`, the IC50 in data set [2] stood at 8.6 nM; in data set [3], 78.5 nM; in data set [6], 36.1 nM. Also, the microsomal CLint in data set [4] stood at 75.1 µL/min/mg. Besides, the half-life in data set [5] was 18.5 min.
The molecule `Fc1ccc2[nH]c(-c3n[nH]cc3Nc3ncnc4[nH]ccc34)nc2c1` came in with a concentration for half-maximal inhibition (IC50) in data set [2] of 33.6 nM.
In the case of `c1nc(Nc2c[nH]nc2-c2nc3cc(OCCN4CCOCC4)ccc3[nH]2)c2cc[nH]c2n1`, the IC50 was found to be 1.1 nM in data set [2], 30.7 nM in data set [3] and 12.4 nM in data set [6]. In data set [4], the microsomal CLint is 63.9 µL/min/mg. The half-life in data set [5] turned out to be 27.2 min.
Consider `Cc1nc(Cl)cc(Nc2c[nH]nc2-c2nc3ccccc3[nH]2)n1`, for which the 50% inhibitory concentration (IC50) in data set [2] is 1220 nM.
For `CCN(CC)CCNc1nccc(Nc2c[nH]nc2-c2nc3ccccc3[nH]2)n1`, the Activity in data set [1] was found to be 40.5%.
As to `Nc1nccc(Nc2c[nH]nc2-c2nc3ccccc3[nH]2)n1`, in data set [2], the IC50 was determined as 60.1 nM.
In turn, `O=C(Nc1nccc(Nc2c[nH]nc2-c2nc3ccccc3[nH]2)n1)c1ccccc1` registered a half-maximal inhibitory concentration (IC50) in data set [2] of 531 nM.
For `Clc1nccc(Nc2c[nH]nc2-c2nc3ccccc3[nH]2)n1`, the IC50 in data set [2] was 240 nM.
Take `Cc1nc(Nc2c[nH]nc2-c2nc3cc(C)c(C)cc3[nH]2)c2cc[nH]c2n1`: the IC50 in data set [2] stood at 154 nM.
For `Cn1c(-c2n[nH]cc2Nc2ccnc(N)n2)nc2ccccc21`, the Activity in data set [1] was 92.3%.
For `c1ccc2[nH]c(-c3n[nH]cc3NC3CCNCC3)nc2c1`, in data set [1], the Activity stood at 82.7%.
As for `CN(C)c1ccc2[nH]c(-c3n[nH]cc3Nc3ncnc4[nH]ccc34)nc2c1`, the half-maximal inhibitory concentration (IC50) in data set [2] came out at 2.7 nM; in data set [3], 61.4 nM; in data set [6] it was 19.7 nM. Also, the microsomal CLint in data set [4] was 30.8 µL/min/mg. In addition, the half-life in data set [5] was found to be 44.9 min.
In data set [2], `c1cc(N2CCCCC2)c2nc(-c3n[nH]cc3Nc3ncnc4[nH]ccc34)[nH]c2c1` gave a concentration for half-maximal inhibition (IC50) of 58 nM.
`c1ccc2[nH]c(-c3n[nH]cc3Nc3ncnc4[nH]ccc34)nc2c1` yielded a concentration for half-maximal inhibition (IC50) in data set [2] of 20.5 nM.
Take `COCCOc1ccc2[nH]c(-c3n[nH]cc3Nc3ncnc4[nH]ccc34)nc2c1`: the half-maximal inhibitory concentration (IC50) in data set [2] is 5.5 nM; in data set [3], 78.9 nM; in data set [6] it was 27.6 nM.
Regarding `COc1ccc2[nH]c(-c3n[nH]cc3Nc3ncnc4[nH]ccc34)nc2c1`, the figures for the IC50 in data set [2], in data set [3] and in data set [6] were 4.9 nM, 41.5 nM and 10.8 nM, respectively. Besides, in data set [4], the microsomal CLint was 79.9 µL/min/mg. Besides, in data set [5], the half-life is 17.3 min.
Consider `Cc1ccc2[nH]c(-c3n[nH]cc3Nc3ncnc4[nH]ccc34)nc2c1`, for which the half-maximal inhibitory concentration (IC50) in data set [2] is 9.3 nM.
In the case of `Cc1cc2nc(-c3n[nH]cc3Nc3ncnc4[nH]ccc34)[nH]c2cc1C`, the IC50 in data set [2] worked out at 3.6 nM; in data set [3], 47.7 nM; in data set [6], 29.8 nM. The microsomal CLint in data set [4] was 70.4 µL/min/mg. Moreover, the half-life in data set [5] worked out at 19.7 min.
For `C[C@@H]1CN(c2ccc3[nH]c(-c4n[nH]cc4Nc4ncnc5[nH]ccc45)nc3c2)C[C@H](C)O1`, the concentration for half-maximal inhibition (IC50) in data set [2] was 3 nM; in data set [3] it was 46.8 nM; in data set [6], 4.9 nM. Besides, in data set [4], the microsomal CLint was 16.4 µL/min/mg. Also, the half-life in data set [5] worked out at 84.3 min.
In turn, `Clc1ccc2[nH]c(-c3n[nH]cc3Nc3ncnc4[nH]ccc34)nc2c1` showed an IC50 in data set [2] of 172 nM.
For the molecule `c1ccc2[nH]c(-c3n[nH]cc3Nc3ccnc(NCC4CCCCC4)n3)nc2c1`, the Activity in data set [1] amounted to 47.9%.
`Cc1cc2nc(-c3n[nH]cc3Nc3ncnc4sccc34)[nH]c2cc1C` had an IC50 in data set [2] of 77.6 nM.
The molecule `CC(C)(C)c1ccc2[nH]c(-c3n[nH]cc3Nc3ncnc4[nH]ccc34)nc2c1` registered an IC50 in data set [2] of 67.4 nM.
With `c1nc(Nc2c[nH]nc2-c2nc3cc(N4CCCCC4)ccc3[nH]2)c2cc[nH]c2n1`, the half-inhibitory concentration (IC50) in data set [2] turned out to be 5.9 nM; in data set [3] it was 184 nM; in data set [6], 66.4 nM.
For the molecule `Cc1cccc2[nH]c(-c3n[nH]cc3Nc3ncnc4[nH]ccc34)nc12`, the IC50 in data set [2] worked out at 5.6 nM; in data set [3], 39.2 nM; in data set [6], 11 nM. Further, the microsomal CLint in data set [4] turned out to be 14.2 µL/min/mg. Besides, the half-life in data set [5] was found to be 97.8 min.
On to `Nc1cccc(CNc2c[nH]nc2-c2nc3ccccc3[nH]2)c1`, for which the Activity in data set [1] worked out at 52.6%.
Take `Nc1nccc(Nc2c[nH]nc2-c2nc3ccccc3s2)n1`: the IC50 in data set [2] worked out at 163 nM.
With `Nc1cc(Nc2c[nH]nc2-c2nc3ccccc3[nH]2)ncn1`, in data set [2], the IC50 stood at 135 nM.
`Cc1cc2nc(-c3n[nH]cc3Nc3ccnc4[nH]ccc34)[nH]c2cc1C`: in data set [2], 28.2 nM corresponded to half-maximal inhibition (IC50).
As to `c1ccc2[nH]c(-c3n[nH]cc3Nc3ccnc(NC4CCCC4)n3)nc2c1`, the Activity in data set [1] stood at 36.3%.
In the case of `Cc1cc2nc(-c3n[nH]cc3Nc3ncnc4c3ccn4C)[nH]c2cc1C`, in data set [2], the IC50 came to 21.4 nM.
`c1ccc2[nH]c(-c3n[nH]cc3Nc3ncnc4ccccc34)nc2c1`: the IC50 in data set [2] worked out at 107 nM.
With `CCNc1c[nH]nc1-c1nc2ccccc2[nH]1`, in data set [2], it took 15800 nM to reach half-maximal inhibition (IC50).
As to `CN(C)c1cccc2[nH]c(-c3n[nH]cc3Nc3ncnc4[nH]ccc34)nc12`, the IC50 stood at 11.1 nM in data set [2], 18.5 nM in data set [3] and 20.4 nM in data set [6]. The microsomal CLint in data set [4] was found to be 52.2 µL/min/mg. In data set [5], the half-life worked out at 33.3 min.
`COC(=O)c1cc(Nc2c[nH]nc2-c2nc3ccccc3[nH]2)nc(Cl)n1`: half-maximal inhibition in data set [2] (IC50) required 321 nM.
For the molecule `COc1cccc2[nH]c(-c3n[nH]cc3Nc3ncnc4[nH]ccc34)nc12`, the IC50 is 8.4 nM in data set [2], 29.8 nM in data set [3] and 3.3 nM in data set [6]. In addition, in data set [4], the microsomal CLint worked out at 14.3 µL/min/mg. In addition, in data set [5], the half-life was determined as 97 min.
In data set [2], `c1ccc(Nc2nccc(Nc3c[nH]nc3-c3nc4ccccc4[nH]3)n2)cc1` showed an IC50 of 687 nM.
Molecule `c1ccc2[nH]c(-c3n[nH]cc3NCc3ccncc3)nc2c1` displayed a concentration for half-maximal inhibition (IC50) in data set [2] of 1780 nM.
For the molecule `Clc1cc(Nc2c[nH]nc2-c2nc3ccccc3[nH]2)nc(N2CCOCC2)n1`, in data set [1], the Activity amounted to 91.2%.

The values are drawn from ChEMBL document CHEMBL5620426, “Discovery of 3-(1H-benzo[d]imidazole-2-yl)-1H-pyrazol-4 -amine derivatives as novel and potent syk inhibitors for the treatment of hematological malignancies” (Eur J Med Chem, 2023).
